Measured values as given in patent publication US10203334B2, “Methods and compositions related to nucleic acid binding assays” (Nubad, LLC, priority 2012, dated 2019).

What was measured:
Assay type in all cases: binding
[1] = system: DNA triplex poly(dA).2poly(dT); assay: Competition dialysis
Text: (§1) Disclosed is the use of fluorescent aminosugar probes such as F-neo (42a) to probe a variety of nucleic acid targets. Competition dialysis was used as a nucleic acid screening technique to illustrate the binding of F-neo (42a) to different nucleic acid structures.
(§2) Competition dialysis studies using a fluorescein-neomycin conjugate (F-neo (42a)). […] Comparative binding of F-neo (42a) to 13 different nucleic acid structures was examined which included single strand nucleic acids [poly(dT), poly(A), poly(U)], duplexes [poly(dA).poly(dT), poly(rA).poly(dT), poly(rA).poly(rU), poly(dA).poly(rU), poly(dG).poly(dC), calf thymus], triplexes [poly(dA).2poly(dT), poly(rA).2poly(rU)], i-motif (polydC) and 16S A-site rRNA (SEQ ID No. 1). The amount of F-neo (42a) bound to each nucleic acid is shown as a bar graph in FIG. 13. Because all nucleic acids are dialyzed simultaneously in the same ligand solution, the amount of bound F-neo (42a) is directly proportional to its affinity for each nucleic acid. […] 200 μL of different nucleic acids (7.5 μM per monomeric unit of each polymer) was dialyzed for 72 h with 400 mL 100 nM ligand in 6 mM Na2HPO4, 2 mM NaH2PO4, 1 mM Na2EDTA, pH 7.0 and various Na+ concentrations as indicated.
F-neo (42a) prefers to bind to 16S A-site rRNA yielding a bound ligand concentration of 85 nM in 100 mM Na^+, 50 nM in 150 mM Na^+, and 15 nM in 200 mM Na^+ is shown in FIG. 15. […]

[2] = system: 13 different nucleic acid structures; assay: Competition dialysis, whole panel; conditions: Na^+ concentration increases from 100 to 200 mM
Text: as §1, §2
The binding of F-neo (42a) to nucleic acids is affected by the salt concentration. […]

[3] = system: d(CCCCGGGG)2; assay: Fluorescein-neomycin fluorescence quenching by DNA duplex; conditions: 1 μM probe, 10 mM SC, 0.5 mM EDTA, pH 6.8
Experimental: (§3) It has been shown that the fluorescence of a fluorescein-neomycin is quenched when bound to a nucleic acid target. In continued efforts to expand the applications of the fluorescein-neomycin conjugate, a fluorescence quenching study was performed to determine if the quenching of fluorescein-neomycin in the presence of DNA is representative of the neomycin affinity. Previous studies using the duplexes d(GGGGCCCC)2 and d(CCCCGGGG)2 have shown the binding is lower for d(CCCCGGGG)2. This has been shown from the ITC derived binding constants, FID studies, and electrostatic potential studies. […] For this reason the fluorescence quenching of fluorescein-neomycin with d(GGGGCCCC)2 and d(CCCCGGGG)2 was performed at three different buffer salt concentrations. […] Results from this study show here that the fluorescein-neomycin quenching can be applied to screening the 256 GC rich hairpins to identify which sequence neomycin has the highest affinity. Table 2 represents the change in fluorescence (%) values of fluorescein-neomycin with 1rdr d(GGGGCCCC)2 and d(CCCCGGGG)2 in 3 different buffer salt concentrations and the ratio between the change in fluorescence (%) values of F-neo with d(CCCCGGGG)2 compared to d(GGGGCCCC)2. Fluorescein-neomycin=1 μM, Buffer=10 mM SC, 0.5 mM EDTA, and either 50 mM NaCl, 100 mM NaCl, or 150 mM NaCl (pH=6.8). Experiment was performed in triplicate and the results were also polted in FIG. 10 showing the change in fluorescence (%) of fluorescein-neomycin with 1 equivalent d(GGGGCCCC)2 and d(CCCCGGGG)2 in 3 different buffer salt concentrations.

[4] = system: d(GGGGCCCC)2; assay: as above; conditions: 1 μM probe, 10 mM SC, 0.5 mM EDTA, pH 6.8
Experimental: as §3

[5] = system: RNA triplex poly(rA).2poly(rU); assay: Competition dialysis
Text: as §1, §2
(§4) F-neo (42a) prefers to bind to 16S A-site rRNA yielding a bound ligand concentration of 85 nM in 100 mM Na^+, 50 nM in 150 mM Na^+, and 15 nM in 200 mM Na^+ is shown in FIG. 15.

[6] = system: DNA duplex poly(dA).poly(dT), hybrid duplex poly(rA).poly(dT), calf thymus DNA, i-motif DNA, and all single-stranded nucleic acids; assay: Competition dialysis
Text: as §1, §2, §4

[7] = system: RNA duplex poly(rA).poly(rU); assay: Competition dialysis; conditions: under these salt conditions (100-200 mM Na^+)
Text: as §1, §2, §4

[8] = system: hybrid duplex poly(dA).poly(rU); assay: Competition dialysis; conditions: under these salt conditions (100-200 mM Na^+)
Text: as §1, §2, §4

[9] = 50 mM NaCl, listed as Fluorescein-neomycin
[10] = 50 mM NaCl, listed as fluorescein-neomycin
[11] = 150 mM NaCl, listed as Fluorescein-neomycin
[12] = 150 mM NaCl, listed as fluorescein-neomycin

Compound: NCC1O[C@H](OC2C(O)C(OC3C(O)[C@H](N)CC(N)[C@H]3O[C@H]3OC(CN)[C@@H](O)C(O)C3N)O[C@@H]2CSCCNC(=O)CCSCC(=O)Nc2ccc(-c3c4ccc(=O)cc-4oc4cc(O)ccc34)c(C(=O)O)c2)C(N)C(O)[C@@H]1O (stereo partly shown) [F-neo (42a), Neomycin-Fluorescein Conjugate]
- binding to poly(dA).2poly(dT) ([1]; 100 mM Na^+, ambient temperature (˜22° C.), triplex not formed): absence of F-neo (42a) binding
- bound drug ([1]; under these salt conditions (100-200 mM Na^+)): 10 to 20 nM
- decrease of amount bound for each nucleic acid structure [2]: 4-5 times
- ΔF (%) with 1rdr d(CCCCGGGG)2 [3, 9]: 47.75 ± 5.60%
- ΔF (%) with 1rdr d(CCCCGGGG)2 [3, 10]: 47%
- ΔF (%) with 1rdr d(CCCCGGGG)2 ([3]; 100 mM NaCl): 32.18 ± 0.42%
- ΔF (%) with 1rdr d(CCCCGGGG)2 [3, 11]: 20.36 ± 2.76%
- ΔF (%) with 1rdr d(CCCCGGGG)2 [3, 12]: 20%
- ΔF (%) with 1rdr d(GGGGCCCC)2 [4, 9]: 73.97 ± 5.78%
- ΔF (%) with 1rdr d(GGGGCCCC)2 [4, 10]: 73%
- ΔF (%) with 1rdr d(GGGGCCCC)2 ([4]; 100 mM NaCl): 49.28 ± 1.12%
- ΔF (%) with 1rdr d(GGGGCCCC)2 [4, 11]: 33.88 ± 3.33%
- ΔF (%) with 1rdr d(GGGGCCCC)2 [4, 12]: 33%
- bound F-neo (42a) ([5]; 100 mM Na^+): 60 nM
- bound F-neo (42a) ([5]; 150 mM Na^+): 20 nM
- bound F-neo (42a) ([5]; 200 mM Na^+): 5 nM
- binding in competition dialysis [6]: moderate to very weak binding
- bound drug [7]: 10 to 20 nM
- bound drug [8]: 10 to 20 nM
